Test results published in PubChem BioAssay AID2060486 (Molecular Pharmacology Branch, DTP, NCI, 2025).

System: IGROV1 complex spheroids (HUVEC, MSC), viability % test/control
Assay: Anticancer human tumor IGROV1 cell line growth inhibition [GQUAD];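 note: spheroids exposed to compounds for 7 days before readout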;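 for viability, T/C: 100% = DMSO vehicle control viability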
Details: for IC50: curve of first compound; for viability, T/C: stronger effect = lower value
In short: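 Tumor cells were grown as complex spheroids with HUVEC endothelial cells and mesenchymal stem cells as stroma. G-quadruplex stabilizers were combined with targeted agents over half-log dilutions from near the clinical Cmax, or from 10 microM.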

[1] = second compound 0.0316 µM, first compound 0.0316 µM
[2] = second compound 0.0316 µM, first compound 0.316 µM
[3] = second compound 0.1 µM, first compound 0.0316 µM
[4] = second compound 0.1 µM, first compound 0.316 µM
[5] = second compound 0.316 µM, first compound 0.0316 µM
[6] = second compound 0.316 µM, first compound 0.316 µM
[7] = second compound 1 µM, first compound 0.0316 µM
[8] = second compound 1 µM, first compound 0.316 µM
[9] = second compound 3.16 µM, first compound 0.0316 µM
[10] = second compound 3.16 µM, first compound 0.316 µM
[11] = second compound 10 µM, first compound 0.0316 µM
[12] = second compound 10 µM, first compound 0.316 µM
[13] = second compound 0.0316 µM, first compound 0.000999 µM
[14] = second compound 0.0316 µM, first compound 0.00316 µM
[15] = second compound 0.0316 µM, first compound 0.00999 µM
[16] = second compound 0.0316 µM, first compound 0.0999 µM
[17] = second compound 0.1 µM, first compound 0.000999 µM
[18] = second compound 0.1 µM, first compound 0.00316 µM
[19] = second compound 0.1 µM, first compound 0.00999 µM
[20] = second compound 0.1 µM, first compound 0.0999 µM
[21] = second compound 0.316 µM, first compound 0.000999 µM
[22] = second compound 0.316 µM, first compound 0.00316 µM
[23] = second compound 0.316 µM, first compound 0.00999 µM
[24] = second compound 0.316 µM, first compound 0.0999 µM
[25] = second compound 1 µM, first compound 0.000999 µM
[26] = second compound 1 µM, first compound 0.00316 µM
[27] = second compound 1 µM, first compound 0.00999 µM
[28] = second compound 1 µM, first compound 0.0999 µM
[29] = second compound 3.16 µM, first compound 0.000999 µM
[30] = second compound 3.16 µM, first compound 0.00316 µM
[31] = second compound 3.16 µM, first compound 0.00999 µM
[32] = second compound 3.16 µM, first compound 0.0999 µM
[33] = second compound 10 µM, first compound 0.000999 µM
[34] = second compound 10 µM, first compound 0.00316 µM
[35] = second compound 10 µM, first compound 0.00999 µM
[36] = second compound 10 µM, first compound 0.0999 µM

C=CC(=O)N1CCN(c2nc(=O)n(-c3c(C)ccnc3C(C)C)c3nc(-c4c(O)cccc4F)c(F)cc23)C(C)C1 (stereo unspecified) + Cc1cnc(CNC(=O)c2c(=O)c3ccc(N4CCCN(C)CC4)nc3n3c2sc2ccccc23)cn1
IC50 (second compound 0.0316 µM): > 10000 nM
IC50 (second compound 0.1 µM): 78.4 nM
IC50 (second compound 0.316 µM): < 31.6 nM
IC50 (second compound 1 µM): < 31.6 nM
IC50 (second compound 3.16 µM): < 31.6 nM
IC50 (second compound 10 µM): < 31.6 nM
viability, T/C [1]: 82.8%
viability, T/C (second compound 0.0316 µM, first compound 0.1 µM): 77.2%
viability, T/C [2]: 88.5%
viability, T/C (second compound 0.0316 µM, first compound 1 µM): 60.1%
viability, T/C (second compound 0.0316 µM, first compound 3.16 µM): 94.6%
viability, T/C (second compound 0.0316 µM, first compound 10 µM): 66.9%
viability, T/C [3]: 51.8%
viability, T/C (second compound 0.1 µM, first compound 0.1 µM): 49.3%
viability, T/C [4]: 51.4%
viability, T/C (second compound 0.1 µM, first compound 1 µM): 43.8%
viability, T/C (second compound 0.1 µM, first compound 3.16 µM): 46.6%
viability, T/C (second compound 0.1 µM, first compound 10 µM): 51.4%
viability, T/C [5]: 27%
viability, T/C (second compound 0.316 µM, first compound 0.1 µM): 44.7%
viability, T/C [6]: 39.8%
viability, T/C (second compound 0.316 µM, first compound 1 µM): 33.4%
viability, T/C (second compound 0.316 µM, first compound 3.16 µM): 44.9%
viability, T/C (second compound 0.316 µM, first compound 10 µM): 28.6%
viability, T/C [7]: 18.5%
viability, T/C (second compound 1 µM, first compound 0.1 µM): 20.1%
viability, T/C [8]: 17%
viability, T/C (second compound 1 µM, first compound 1 µM): 17.7%
viability, T/C (second compound 1 µM, first compound 3.16 µM): 26.8%
viability, T/C (second compound 1 µM, first compound 10 µM): 19.7%
viability, T/C [9]: 10.2%
viability, T/C (second compound 3.16 µM, first compound 0.1 µM): 11.6%
viability, T/C [10]: 11.6%
viability, T/C (second compound 3.16 µM, first compound 1 µM): 12.5%
viability, T/C (second compound 3.16 µM, first compound 3.16 µM): 15.6%
viability, T/C (second compound 3.16 µM, first compound 10 µM): 12.9%
viability, T/C [11]: 12.3%
viability, T/C (second compound 10 µM, first compound 0.1 µM): 16.2%
viability, T/C [12]: 16.6%
viability, T/C (second compound 10 µM, first compound 1 µM): 15.6%
viability, T/C (second compound 10 µM, first compound 3.16 µM): 14.6%
viability, T/C (second compound 10 µM, first compound 10 µM): 10%

CC[C@@]1(O)C(=O)OCc2c1cc1n(c2=O)Cc2cc3c(CN(C)C)c(O)ccc3nc2-1 + Cc1cnc(CNC(=O)c2c(=O)c3ccc(N4CCCN(C)CC4)nc3n3c2sc2ccccc23)cn1
IC50 (second compound 0.0316 µM): 13.3 nM
IC50 (second compound 0.1 µM): < 0.999 nM
IC50 (second compound 0.316 µM): < 0.999 nM
IC50 (second compound 1 µM): < 0.999 nM
IC50 (second compound 3.16 µM): < 0.999 nM
IC50 (second compound 10 µM): < 0.999 nM
viability, T/C [13]: 69.8%
viability, T/C [14]: 57.8%
viability, T/C [15]: 60.4%
viability, T/C [1]: 19.8%
viability, T/C [16]: 12.4%
viability, T/C [2]: 8.43%
viability, T/C [17]: 33%
viability, T/C [18]: 34.3%
viability, T/C [19]: 31.3%
viability, T/C [3]: 15.8%
viability, T/C [20]: 12%
viability, T/C [4]: 9.62%
viability, T/C [21]: 24.3%
viability, T/C [22]: 29.3%
viability, T/C [23]: 18%
viability, T/C [5]: 12.4%
viability, T/C [24]: 11.9%
viability, T/C [6]: 8.87%
viability, T/C [25]: 21.8%
viability, T/C [26]: 18.1%
viability, T/C [27]: 12.3%
viability, T/C [7]: 11.1%
viability, T/C [28]: 13.1%
viability, T/C [8]: 9.29%
viability, T/C [29]: 10.1%
viability, T/C [30]: 8.55%
viability, T/C [31]: 9.85%
viability, T/C [9]: 8.98%
viability, T/C [32]: 10.3%
viability, T/C [10]: 8.29%
viability, T/C [33]: 11.6%
viability, T/C [34]: 9.45%
viability, T/C [35]: 11.2%
viability, T/C [11]: 8.53%
viability, T/C [36]: 10%
viability, T/C [12]: 9.32%

CCc1c2c(nc3ccc(O)cc13)-c1cc3c(c(=O)n1C2)COC(=O)[C@]3(O)CC + Cc1cnc(CNC(=O)c2c(=O)c3ccc(N4CCCN(C)CC4)nc3n3c2sc2ccccc23)cn1
IC50 (second compound 0.0316 µM): < 0.999 nM
IC50 (second compound 0.1 µM): < 0.999 nM
IC50 (second compound 0.316 µM): < 0.999 nM
IC50 (second compound 1 µM): < 0.999 nM
IC50 (second compound 3.16 µM): < 0.999 nM
IC50 (second compound 10 µM): < 0.999 nM
viability, T/C [13]: 31.5%
viability, T/C [14]: 13.3%
viability, T/C [15]: 9.95%
viability, T/C [1]: 8.54%
viability, T/C [16]: 4.31%
viability, T/C [2]: 1.99%
viability, T/C [17]: 17.2%
viability, T/C [18]: 8.8%
viability, T/C [19]: 9.75%
viability, T/C [3]: 7.73%
viability, T/C [20]: 4.92%
viability, T/C [4]: 2.18%
viability, T/C [21]: 14.4%
viability, T/C [22]: 10.9%
viability, T/C [23]: 8.79%
viability, T/C [5]: 6.94%
viability, T/C [24]: 6.74%
viability, T/C [6]: 2.05%
viability, T/C [25]: 10.6%
viability, T/C [26]: 10.6%
viability, T/C [27]: 9.03%
viability, T/C [7]: 9.75%
viability, T/C [28]: 5.59%
viability, T/C [8]: 1.55%
viability, T/C [29]: 11.3%
viability, T/C [30]: 7%
viability, T/C [31]: 6.92%
viability, T/C [9]: 5.6%
viability, T/C [32]: 3.86%
viability, T/C [10]: 0.83%
viability, T/C [33]: 7.27%
viability, T/C [34]: 8.08%
viability, T/C [35]: 7.06%
viability, T/C [11]: 6.04%
viability, T/C [36]: 3.78%
viability, T/C [12]: 0.4%
